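Cells were grown in 96-well plates and exposed to each compound for 48 hours at five concentrations; endpoints were interpolated linearly between bracketing concentrations, or set to the highest concentration if not reached. TGI: total growth inhibition.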
Tests used:
Test in all cases: NCI tumour cell line growth inhibition, 48 h
[1] = test system: HS 578T breast
[2] = test system: OVCAR-4 ovarian
[3] = test system: OVCAR-5 ovarian
[4] = test system: HOP-18 NSCLC
[5] = test system: CCRF-CEM leukemia
[6] = test system: HCC-2998 colon
[7] = test system: A498 renal
[8] = test system: SR leukemia
[9] = test system: NCI-H23 lung
[10] = test system: KM20L2 colon
[11] = test system: UO-31 renal
[12] = test system: MOLT-4 leukemia
[13] = test system: SF-539 CNS
[14] = test system: LOX IMVI melanoma
[15] = test system: SK-MEL-2 melanoma
[16] = test system: SF-268 CNS
[17] = test system: 786-0 renal
[18] = test system: K-562 leukemia
[19] = test system: DLD-1 colon
[20] = test system: SK-MEL-5 melanoma
[21] = test system: OVCAR-8 ovarian
[22] = test system: SF-295 CNS
[23] = test system: XF 498 CNS
[24] = test system: DU-145 prostate
[25] = test system: HCT-116 colon
[26] = test system: CAKI-1 renal
[27] = test system: T-47D breast
[28] = test system: UACC-62 melanoma
[29] = test system: SN12C renal
[30] = test system: SNB-78 CNS
[31] = test system: NCI-H226 lung
[32] = test system: MDA-MB-231 breast
[33] = test system: UACC-257 melanoma
[34] = test system: HT29 colon
[35] = test system: M19-MEL melanoma
[36] = test system: EKVX NSCLC
[37] = test system: MDA-N
[38] = test system: DMS 114 small cell lung
[39] = test system: NCI-H460 lung
[40] = test system: SNB-19 CNS
[41] = test system: IGROV1 ovarian
[42] = test system: DMS 273 small cell lung
[43] = test system: A549 NSCLC
[44] = test system: COLO 205 colon
[45] = test system: RPMI-8226 leukemia
[46] = test system: MALME-3M melanoma
[47] = test system: M14 melanoma
[48] = test system: NCI/ADR-RES ovarian
[49] = test system: HOP-62 NSCLC
[50] = test system: RXF-631 renal
[51] = test system: SK-OV-3 ovarian
[52] = test system: SNB-75 CNS
[53] = test system: RXF 393 renal
[54] = test system: HL-60(TB) leukemia
[55] = test system: PC-3 prostate
[56] = test system: SK-MEL-28 melanoma
[57] = test system: OVCAR-3 ovarian
[58] = test system: U251 CNS
[59] = test system: HCT-15 colon
[60] = test system: TK-10 renal
[61] = test system: KM12 colon
[62] = test system: NCI-H522 lung
[63] = test system: LXFL 529 NSCLC
[64] = test system: MDA-MB-435
[65] = test system: HOP-92 NSCLC
[66] = test system: BT-549 breast
[67] = test system: ACHN renal
[68] = test system: SW-620 colon
[69] = test system: SN12K1 renal
[70] = test system: P388 leukemia
[71] = test system: P388/ADR leukemia
[72] = test system: MCF7 breast

## C[N+](C)(C)CC1CCCC(C[N+](C)(C)C)C1=O (centres undefined)
[1]
  TGI: 33.6 µM
[2]
  TGI: 0.871 µM
[3]
  TGI: 7.73 µM
[4]
  TGI: 1 µM
[5]
  TGI: 1.28 µM
[6]
  TGI: 8.63 µM
[7]
  TGI: 20.2 µM
[8]
  TGI: 0.479 µM
[9]
  TGI: 5.84 µM
[10]
  TGI: 5.5 µM
[11]
  TGI: 7.68 µM
[12]
  TGI: 3.85 µM
[13]
  TGI: 8.8 µM
[14]
  TGI: 3.09 µM
[15]
  TGI: 3.29 µM
[16]
  TGI: 55.9 µM
[17]
  TGI: 2.38 µM
[18]
  TGI: 2.58 µM
[19]
  TGI: 0.386 µM
[20]
  TGI: 10.5 µM
[21]
  TGI: 1.15 µM
[22]
  TGI: 45.6 µM
[23]
  TGI: 0.898 µM
[24]
  TGI: 16.7 µM
[25]
  TGI: 2.23 µM
[26]
  TGI: 1.48 µM
[27]
  TGI: 3.33 µM
[28]
  TGI: 10.9 µM
[29]
  TGI: 1.5 µM
[30]
  TGI: 5.88 µM
[31]
  TGI: 31.4 µM
[32]
  TGI: 3.58 µM
[33]
  TGI: 1.48 µM
[34]
  TGI: 14.2 µM
[35]
  TGI: 2.33 µM
[36]
  TGI: 3.95 µM
[37]
  TGI: 9.44 µM
[38]
  TGI: 3.49 µM
[39]
  TGI: 39.2 µM
[40]
  TGI: 38 µM
[41]
  TGI: 11.5 µM
[42]
  TGI: 10.1 µM
[43]
  TGI: 40.6 µM
[44]
  TGI: 0.923 µM
[45]
  TGI: 0.256 µM
[46]
  TGI: 0.487 µM
[47]
  TGI: 2.37 µM
[48]
  TGI: 7.27 µM
[49]
  TGI: 43.3 µM
[50]
  TGI: 47.4 µM
[51]
  TGI: 26 µM
[52]
  TGI: 14.5 µM
[53]
  TGI: 3.18 µM
[54]
  TGI: 2.22 µM
[55]
  TGI: 10.3 µM
[56]
  TGI: 3.75 µM
[57]
  TGI: 1.36 µM
[58]
  TGI: 10.3 µM
[59]
  TGI: 0.874 µM
[60]
  TGI: 4 µM
[61]
  TGI: 12.5 µM
[62]
  TGI: 53.2 µM
[63]
  TGI: 0.392 µM
[64]
  TGI: 3.43 µM
[65]
  TGI: 1.17 µM
[66]
  TGI: 3.09 µM
[67]
  TGI: 1.82 µM

## NCC(Cl)C(O)c1cnc(N)[nH]1 (centres undefined)
[2]
  TGI: 10.2 µM
[3]
  TGI: 20.6 µM
[4]
  TGI: 3.45 µM
[5]
  TGI: > 83.6 µM
[6]
  TGI: 5.12 µM
[7]
  TGI: 1.01 µM
[68]
  TGI: 3.89 µM
[9]
  TGI: 16 µM
[10]
  TGI: 20.8 µM
[11]
  TGI: 6.38 µM
[12]
  TGI: 2.65 µM
[13]
  TGI: 5.85 µM
[14]
  TGI: 16.8 µM
[15]
  TGI: 18.3 µM
[16]
  TGI: > 73.8 µM
[18]
  TGI: > 100 µM
[19]
  TGI: 29.2 µM
[20]
  TGI: 47.6 µM
[21]
  TGI: 15.5 µM
[69]
  TGI: 12.4 µM
[22]
  TGI: 52.6 µM
[23]
  TGI: 9.23 µM
[25]
  TGI: > 34.5 µM
[26]
  TGI: 4.35 µM
[28]
  TGI: 63 µM
[29]
  TGI: 32.8 µM
[30]
  TGI: > 90.9 µM
[31]
  TGI: 17.6 µM
[33]
  TGI: 32 µM
[34]
  TGI: > 37.1 µM
[35]
  TGI: 29.8 µM
[70]
  TGI: 1.06 µM
[36]
  TGI: 8.53 µM
[38]
  TGI: 40.7 µM
[39]
  TGI: > 44.1 µM
[40]
  TGI: 19.3 µM
[41]
  TGI: 4.34 µM
[42]
  TGI: 21.4 µM
[43]
  TGI: 9.28 µM
[71]
  TGI: 10.1 µM
[44]
  TGI: 5.51 µM
[45]
  TGI: 2.15 µM
[46]
  TGI: 11.2 µM
[48]
  TGI: > 100 µM
[49]
  TGI: 5.98 µM
[51]
  TGI: > 44.6 µM
[52]
  TGI: 38.8 µM
[53]
  TGI: 4.7 µM
[54]
  TGI: 25.4 µM
[56]
  TGI: > 76.6 µM
[57]
  TGI: 16.2 µM
[58]
  TGI: > 100 µM
[59]
  TGI: > 63.2 µM
[61]
  TGI: 2.96 µM
[62]
  TGI: 7.1 µM
[65]
  TGI: 91.4 µM
[72]
  TGI: > 65.5 µM

Reference: PubChem BioAssay (NCI)
